Results published in PubChem BioAssay AID2305 (GlaxoSmithKline (GSK), 2010).

What follows are compounds tested on P. falciparum 3D7 growth, pLDH absorbance (assay: P. falciparum 3D7 growth inhibition, dose response, strain 3D7 (AID 2305)).

| SMILES | IC50 [nM] |
| --- | --- |
| CCCN(CCC)S(=O)(=O)c1ccc(C(=O)Nc2nc3ccc(-c4cc(=O)[nH]c(Nc5ccccc5Cl)n4)cc3[nH]2)cc1 | 590 |
| CC(C)Cn1ccc2c3c(N)nc(N)nc3ccc21 | 30 |
| COc1cc(CNC[C@@H](O)[C@H](Cc2ccccc2)NC(=O)c2cc(C3CCCC3)cc(N3CCCC3=O)c2)cc(OC)c1 | 220 |
| COC(=O)c1cc2cccc(NC[C@@H](C)NC[C@H](O)c3cccc(Cl)c3)c2[nH]1 | 630 |
| OC1(C(F)(F)F)CC(c2ccccc2)=NN1c1nncc(-c2ccccc2)n1 (centres undefined) | 730 |
| Cc1ccc(F)cc1S(=O)(=O)Nc1cccc(CCN2CCC(N3CCCCC3)CC2)c1 | 1120 |
| CCc1ccc(NC(=O)c2ccc(CN3CCCN(Cc4cccc(C)c4)CC3)cc2)cc1 | 1130 |
| O=C(NCc1ccc(F)cc1)Nc1ccc(-c2cccc(-c3nc4ccc(C(F)(F)F)cc4[nH]3)c2)cc1 | 950 |
| Nc1ncnc2cc(-c3cccc(S(N)(=O)=O)c3)sc12 | 150 |
| Cc1cc(NC(c2ccc(Cl)cc2)c2ccc3cccnc3c2O)no1 (centres undefined) | 1090 |
| CN(C)CCCNCc1ccc(-c2ccc(CNCCOc3ccccc3)cc2)cc1 | 20 |
| CCN(CC)CCc1ccc2c(=O)cc(CCc3cccc(F)c3F)n(CC(=O)N(C)Cc3ccc(-c4ccc(C(F)(F)F)cc4)cc3)c2c1 | 860 |
| CC(=O)Nc1cccc(C(=O)Nc2cccc(-c3csc(-c4nc5ccccc5[nH]4)c3)c2)c1 | 180 |
| COc1ccc2c(OC)c(CNCCCCCCNCc3ccc4cc(OC)ccc4c3OC)ccc2c1 | 920 |
| c1ccc(CSC2=NNC(c3ccccn3)S2)cc1 (centres undefined) | 1480 |
| CC(=O)Nc1ccc2[nH]cc(C3CCN(CC4CCN(C(=O)/C=C/c5ccc(Cl)c(Cl)c5)CC4)CC3)c2n1 | 160 |
| Cc1cc2ncc(C(N)=O)c(Nc3ccc(N4CCOCC4)cc3)c2cc1S(C)(=O)=O | 670 |
| CCc1cn(C)c2c(N3CCCC3=O)cc(C(=O)N[C@@H](Cc3ccccc3)[C@H](O)CNC(C)(C)c3cccc(OC)c3)cc12 | 40 |
| O=C(NC1CCN(Cc2ccccc2)C1)c1ccc(Nc2ccc(Br)cc2)nc1 (centres undefined) | 1080 |
| c1csc(-c2nc(NCC3CCCO3)ncc2-c2ccsc2)n1 (centres undefined) | 490 |
| CCCCCCN1CCC(NCc2ccc(OCCN3CCCC3)cc2)CC1 | 720 |
| COCCN1CCC(NCC(C)(C)c2nc(-c3ccc(Cl)c(O)c3)c(-c3ccncc3)[nH]2)CC1 | 720 |
| O=C(c1cc2nc3c(c(C(F)(F)F)n2n1)CCc1ccccc1-3)N1CCN2CCCC2C1 (centres undefined) | 950 |

| SMILES | IC50 [nM] |
| --- | --- |
| O=C(Nc1cccc(C(F)(F)F)c1)c1cc([N+](=O)[O-])cc2cn[nH]c12 | 990 |
| CC(C)Oc1ccccc1-c1csc(C(=O)NCC2CCN(Cc3ccc(C(C)(C)C)cc3)C2)c1 (centres undefined) | 1070 |
| O=S(=O)(Nc1cccc(CCN2CCC(N3CCCCC3)CC2)c1)c1ccc(Oc2ccccc2)nc1 | 930 |
| CN1CCN(CCCNc2ncc3c(-c4ccc(NC(=O)Nc5cc(C(F)(F)F)ccc5F)c(F)c4)nn(C)c3n2)CC1 | 860 |
| CC[C@@H]([C@@H](Cc1cc2ccccc2s1)C(=O)N[C@@H](CCCCNC(=O)OCc1ccccc1)C(=O)Nc1ccccn1)N(O)C=O | 230 |
| O=C(c1cncc(-c2ccccc2)c1)N(Cc1cncn1Cc1ccccc1F)CC1CC1 | 800 |
| COc1cc(C=C(C2=NC(=O)CS2)c2nc3cccnc3n2C)ccc1O | 1000 |
| c1cc(CN2CCC(CCN3CCCCC3)CC2)cc(-c2csc(-c3nc4ccccc4[nH]3)c2)c1 | 140 |
| Cc1cc(NN=CC=Cc2ccccc2)c2ccccc2n1 | 760 |
| O=C(Cc1cnc[nH]1)Nc1cccc(-c2cccc(-c3nc4ccccc4[nH]3)c2)c1 | 1020 |
| CCN(CC)CCOC(=O)C(OC)(c1ccccc1)c1ccccc1 | 1020 |
| Cc1ccccc1OCC(=O)Nc1ccc(-c2nc3cc4ccccc4cc3[nH]2)cc1 | 750 |
| O=C(/C=C/c1ccc(Cl)c(Cl)c1)N1CCC(CN2CCC(c3c[nH]c4ccc(O)cc34)CC2)CC1 | 780 |
| COc1ccccc1-c1ccc2nnc(SCC(=O)Nc3ccc4c(c3)OCCO4)n2n1 | 720 |
| COc1ccc(CCNC(=O)c2cc3c(=O)n4cccc(C)c4nc3n(C)c2=N)cc1 | 760 |
| CCN(Cc1ccccc1)C1CCN(Cc2cc(Br)ccc2O)CC1 | 820 |
| O=C(/C=C/c1cccc(Cl)c1)N1CCC(C(O)CN2CCC3(CC2)CN(C(=O)/C=C/c2cccc(Cl)c2)c2ccccc23)CC1 (centres undefined) | 890 |
| CC(=O)c1ccc(N2C(=O)C3C(Cc4ccc(OC(C)(C)C)cc4)NC4(C(=O)N(Cc5ccc(C(C)(C)C)cc5)c5ccccc54)C3C2=O)cc1 (centres undefined) | 1280 |
| Cc1cc(NC(=O)c2ccc(-c3ccccc3)cc2)no1 | 1020 |
| CN(C)CCCNCc1cn(S(=O)(=O)c2ccccc2Cl)c2ccccc12 | 1070 |
| O=C(Nc1cccc(-c2ccc(-c3nc4ccc(F)cc4[nH]3)cc2)c1)Nc1ccc(Cl)c(Cl)c1 | 140 |
| CN1CCC=C(C(=O)NCC(C)(C)c2nc(-c3ccc(Cl)c(O)c3)c(-c3ccncc3)[nH]2)C1 | 1000 |
| c1ccc(-n2cncn2)cc1 | 590 |

| SMILES | IC50 [nM] |
| --- | --- |
| Cc1ccc(Cn2ncc(N3CCNCC3)c(Cl)c2=O)cc1NC(=O)Nc1ccc(-c2ccccc2)cc1 | 1120 |
| COc1ccc2nccc([C@@H](O)CN3CCC(NCc4cc5oc(=O)[nH]c5cc4F)CC3)c2c1 | 770 |
| O=C(Cc1cccnc1)N(Cc1ccc(-c2ccc(CNCc3cccnc3)cn2)cc1)C1CCN(Cc2ccccc2)CC1 | 800 |
| CN(c1cc(NC(=O)c2ccccc2)ccn1)C1CCN(Cc2cccc(F)c2)CC1 | 740 |
| CC(C)(C)c1ccc(CNC(=O)c2cc(CNC3CCC(N)CC3)ccc2O)cc1 (centres undefined) | 1030 |
| Cc1ccc(C)c2sc(N(CCCn3ccnc3)C(=O)C=Cc3cccs3)nc12 | 1060 |
| COc1ccc(CCN(C)CCCCNC(=O)c2ccc(NC(=O)c3ccc(Cl)cc3)cc2)c(OC)c1 | 920 |
| Cc1cccc2[nH]c(-c3ccc(-c4cccc(CNCCCNS(C)(=O)=O)c4)cc3)nc12 | 1220 |
| Cc1cccc2[nH]c(-c3cccc(-c4cccc(NC(=O)c5cnn6cccnc56)c4)c3)nc12 | 670 |
| Oc1ccc(CCCNc2nc(NCc3cccc4ccccc34)nc(NC3CCNCC3)n2)cc1 | 1130 |
| COC(=O)c1ccc(C[C@@H](C)NC[C@H](O)c2cccc(OCc3ccccc3)c2)cc1 | 1160 |
| CC(C)C[C@@H](/C=N/NC(N)=O)NC(=O)[C@H](CC(C)C)NC(=O)[C@H](CC(C)C)NC(=O)OCc1ccccc1 | 150 |
| CN1CCC(NCc2ccc(-c3cnc(NCc4ccccc4)nc3)cc2)CC1 | 830 |
| CN(c1ccc(NC(=O)Nc2cc(C(C)(C)C)on2)cc1)c1ccnc(NCCOC(=O)Nc2cc(C(C)(C)C)on2)n1 | 750 |
| CC(Cc1ccc(OCc2ccccc2)cc1)NCC(O)c1cccc(Cl)c1 (centres undefined) | 550 |
| O=C(Nc1ccc2c(c1)CCNCC2)c1ccc(-c2ccc(Cl)cc2)cc1 | 810 |
| COc1ccc(-n2ccnc2SCC(=O)Nc2cc(Cl)ccc2OC)c(OC)c1 | 730 |
| O=C(NC1CCN(Cc2ccccc2)CC1)c1cc(-c2ccncc2)nc2ccc(Cl)cc12 | 920 |
| CN1CCC(N(Cc2ccc(-c3ccc(C(F)(F)F)cc3)cc2)C(=O)Cn2c(SCc3cccc(F)c3F)cc(=O)c3c2CCC3)CC1 | 160 |
| Cc1nc(N)nc(N)c1CCCOc1cccc(Cl)c1 | 480 |
| Cc1ccc(NC(=O)c2ccc(CN3CCCN(CCC(C)C)CC3)cc2)cc1F | 610 |
| CCc1cc(-c2onc(C(F)(F)F)c2-c2ccccc2)c(O)cc1OC | 790 |
| COc1cc(C=CC(=O)N2CCN(Cc3cccc(C)c3)CC2)ccc1OCc1c(C)noc1C | 1030 |
